According to US7550485B2, “Substituted N-heterocycle derivatives and methods of their use” (Wyeth, priority 2003, dated 2009):
Counter-ions that a name gives are not always drawn.

Molecular target: T1, hNET (Homo sapiens, UniProt P23975)
T1 construct: expressed in transfected cells
Test: Norepinephrine (NE) uptake assay in MDCK-Net6 cells stably transfected with human hNET
Type: cell-based
Settings: [3H]NE uptake; for inhibition at 1 µM: MDCK-Net6, 1 μM test compound; for EC50: test range 1 to 10,000 nM; for inhibition at 30 µM: MDCK-Net6, 30 μM test compound (stated in cell)
Summary of the method: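 MDCK-Net6 cells preincubated 20 min at 37 °C with compound (1 to 10,000 nM) in HEPES buffer pH 7.4 with pargyline and ascorbate, then 5 min [3H]NE uptake (120 nM final). Lysed cells counted by scintillation; 1 μM desipramine defined minimum uptake; EC50 from logistic fit of pooled data.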

T1 sequence (P23975 whole entry): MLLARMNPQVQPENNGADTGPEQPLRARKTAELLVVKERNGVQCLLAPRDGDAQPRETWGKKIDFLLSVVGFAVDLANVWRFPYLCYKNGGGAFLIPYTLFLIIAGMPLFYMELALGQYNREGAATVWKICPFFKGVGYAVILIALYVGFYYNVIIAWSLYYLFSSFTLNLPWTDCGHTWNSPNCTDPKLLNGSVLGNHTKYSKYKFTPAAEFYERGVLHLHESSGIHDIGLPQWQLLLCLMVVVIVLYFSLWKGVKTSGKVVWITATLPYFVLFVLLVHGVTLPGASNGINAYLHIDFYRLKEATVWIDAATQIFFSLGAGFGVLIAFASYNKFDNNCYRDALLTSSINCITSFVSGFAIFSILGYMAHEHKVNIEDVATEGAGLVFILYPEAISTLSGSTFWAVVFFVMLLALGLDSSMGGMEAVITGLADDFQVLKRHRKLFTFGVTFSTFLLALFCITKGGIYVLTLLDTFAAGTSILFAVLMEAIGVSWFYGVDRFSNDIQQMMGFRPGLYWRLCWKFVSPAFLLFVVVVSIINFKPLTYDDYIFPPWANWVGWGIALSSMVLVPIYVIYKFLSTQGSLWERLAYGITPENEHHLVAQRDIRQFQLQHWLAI

| SMILES | inhibition at 1 µM [%] | EC50 [nM] | further results |
| --- | --- | --- | --- |
| CNC1CCN(CC(c2ccc(Cl)c(Cl)c2)C2(O)CCCCC2)CC1 (centres unmarked) [Example 13, 1-{1-(3,4-dichlorophenyl)-2-[4-(methylamino)piperidin-1-yl]ethyl}cyclohexanol dihydrochloride] | 89 | 210 |  |
| CN(C)[C@H]1CCN(CC(c2ccc(OCc3ccccc3)cc2)C2(O)CCCCC2)C1 (stereo partly drawn) [Example 214, 1-{1-[4-(benzyloxy)phenyl]-2-[(3S)-3-(dimethylamino)pyrrolidin-1-yl]ethyl}cyclohexanol dihydrochloride] | 65 |  |  |
| CN[C@@H]1CCN(CC(c2cccc(OC(F)(F)F)c2)C2(O)CCCCC2)C1 (stereo partly drawn) [Example 218, 1-{2-[(3R)-3-(methylamino)pyrrolidin-1-yl]-1-[3-(trifluoromethoxy)phenyl]ethyl}cyclohexanol dihydrochloride] | 42 |  |  |
| CNC1CCN(CC(c2cccc(Br)c2)C2(O)CCCCC2)CC1 (centres unmarked) [Example 19, 1-{1-(3-bromophenyl)-2-[4-(methylamino)piperidin-1-yl]ethyl}cyclohexanol dihydrochloride] | 88 | 88 |  |
| COc1ccc2cc(C(CN3CCC(N4CCCC4)CC3)C3(O)CCCCC3)ccc2c1 (centres unmarked) [Example 345, 1-[1-(6-methoxy-2-naphthyl)-2-(4-pyrrolidin-1-ylpiperidin-1-yl)ethyl]cyclohexanol dihydrochloride] | 65 | 530 |  |
| N[C@@H]1CCN(CC(c2cccc(OC(F)(F)F)c2)C2(O)CCCCC2)C1 (stereo partly drawn) [Example 386, 1-{2-[(3R)-3-aminopyrrolidin-1-yl]-1-[3-(trifluoromethoxy)phenyl]ethyl}cyclohexanol dihydrochloride] |  |  | inhibition at 30 µM: 82% |
| NC1CCN(CC(c2cccc3ccccc23)C2(O)CCC2)CC1 (centres unmarked) [Example 43, 1-[2-(4-aminopiperidin-1-yl)-1-(1-naphthyl)ethyl]cyclobutanol dihydrochloride] | 47 |  |  |
| CN(C)[C@@H]1CCN(CC(c2ccc(OCc3ccccc3)cc2)C2(O)CCCCC2)C1 (stereo partly drawn) [Example 381, 1-{1-[4-(benzyloxy)phenyl]-2-[(3R)-3-(dimethylamino)pyrrolidin-1-yl]ethyl}cyclohexanol dihydrochloride] |  |  | inhibition at 30 µM: 95% |
| CN[C@H]1CCN(CC(c2cccc3ccccc23)C2(O)CCCCC2)C1 (stereo partly drawn) [Example 206, 1-[2-[(3S)-3-(methylamino)pyrrolidin-1-yl]-1-(1-naphthyl)ethyl]cyclohexanol dihydrochloride] | 19.2 |  |  |
| C[C@@H]1CCC(O)([C@H](CN2CCC(N3CCCCC3)CC2)c2cccc(OC(F)(F)F)c2)C1 (stereo partly drawn) [Example 398, (3R)-1-{2-(1.4′-bipiperidin-1′-yl)-1-[3-(trifluoromethoxy)phenyl]ethyl}-3-methylcyclopentanol dihydrochloride] | 0 |  |  |
| CN(C)[C@@H]1CCCN(CC(c2cccc(OC(F)(F)F)c2)C2(O)CCCCC2)C1 (stereo partly drawn) [Example 188, 1-{2-[(3R)-3-(dimethylamino)piperidin-1-yl]-1-[3-(trifluoromethoxy)phenyl]ethyl}cyclohexanol dihydrochloride] | 17.6 |  |  |
| CN(C)[C@H]1CCN(CC(c2cccc(Cl)c2)C2(O)CCCCC2)C1 (stereo partly drawn) [Example 199, 1-{1-(3-chlorophenyl)-2-[(3S)-3-(dimethylamino)pyrrolidin-1-yl]ethyl}cyclohexanol dihydrochloride] | 80.7 |  |  |
| CN[C@@H]1CCCN(CC(c2ccc(OCc3ccccc3)c(Cl)c2)C2(O)CCCCC2)C1 (stereo partly drawn) [Example 192, 1-{1-[4-(benzyloxy)-3-chlorophenyl]-2-[(3R)-3-(methylamino)piperidin-1-yl]ethyl}cyclohexanol dihydrochloride] | 88.5 |  |  |
| OC1([C@H](CN2CCC(N3CCCCC3)CC2)c2cccc(OC(F)(F)F)c2)CCCCC1 [Example 366, 1-{(1S)-2-(1,4′-bipiperidin-1′-yl)-1-[3-(trifluoromethoxy)phenyl]ethyl}cyclohexanol dihydrochloride] | 99 | 110 |  |
| COc1ccc2cc(C(CN3CCC(N)CC3)C3(O)CCCCC3)ccc2c1 (centres unmarked) [Example 342, 1-[2-(4-aminopiperidin-1-yl)-1-(6-methoxy-2-naphthyl)ethyl]cyclohexanol dihydrochloride] | 59 | 390 |  |
| CN(C)[C@@H]1CCN(CC(c2cccc(Cl)c2)C2(O)CCCCC2)C1 (stereo partly drawn) [Example 202, 1-{1-(3-chlorophenyl)-2-[(3R)-3-(dimethylamino)pyrrolidin-1-yl]ethyl}cyclohexanol dihydrochloride] | 74.3 |  |  |
| CN(C)[C@H]1CCN(CC(c2cccc(OC(F)(F)F)c2)C2(O)CCCCC2)C1 (stereo partly drawn) [Example 217, 1-{2-[(3S)-3-(dimethylamino)pyrrolidin-1-yl]-1-[3-(trifluoromethoxy)phenyl]ethyl}cyclohexanol dihydrochloride] |  |  | inhibition at 10 µM (MDCK-Net6, 10 μM test compound (stated in cell)): 84.2% |
| N[C@H]1CCN(C[C@@H](c2cccc(Cl)c2)C2(O)CCCCC2)C1 [Example 388, 1-[(1 R)-2-[(3S)-3-aminopyrrolidin-1-yl]-1-(3-chlorophenyl)ethyl]cyclohexanol dihydrochloride] |  | 85 |  |
| N[C@@H]1CCN(CC(c2cccc(Cl)c2)C2(O)CCCCC2)C1 (stereo partly drawn) [Example 201, 1-[2-[(3R)-3-aminopyrrolidin-1-yl]-1-(3-chlorophenyl)ethyl]cyclohexanol dihydrochloride] | 37.5 |  |  |
| N[C@@H]1CCN(CC(c2cccc3ccccc23)C2(O)CCCCC2)C1 (stereo partly drawn) [Example 377, 1-[2-[(3R)-3-aminopyrrolidin-1-yl]-1-(1-naphthyl)ethyl]cyclohexanol dihydrochloride] |  |  | inhibition at 30 µM: 82% |
| CNC1CCN(C[C@@H](c2cccc(Cl)c2)C2CCCCC2)CC1 (single isomer, unassigned) [Example 356, dihydrochloride] | 56 |  |  |
| CC1CCC(O)(C(CN2CCC(N)CC2)c2cccc(Cl)c2)CC1 (centres unmarked) [Example 330, 1-[2-(4-aminopiperidin-1-yl)-1-(3-chlorophenyl)ethyl]-4-methylcyclohexanol dihydrochloride] | 43.9 |  |  |
| COc1ccc2cc(C(CN3CCC(N(C)C)CC3)C3(O)CCCCC3)ccc2c1 (centres unmarked) [Example 343, 1-[2-[4-(dimethylamino)piperidin-1-yl]-1-(6-methoxy-2-naphthyl)ethyl]cyclohexanol dihydrochloride] | 48 |  |  |
| CN(C)[C@@H]1CCN(CC(c2cccc(C(F)(F)F)c2)C2(O)CCCCC2)C1 (stereo partly drawn) [Example 225, 1-{2-[(3R)-3-(dimethylamino)pyrrolidin-1-yl]-1-[3-(trifluoromethyl)phenyl]ethyl}cyclohexanol dihydrochloride] | 84 |  |  |

Continued, in another order:

| inhibition at 1 µM [%] | EC50 [nM] | SMILES | further results |
| --- | --- | --- | --- |
| 38.9 |  | N[C@H]1CCN(CC(c2cccc(OC(F)(F)F)c2)C2(O)CCCCC2)C1 (stereo partly drawn) [Example 216, 1-{2-[(3S)-3-aminopyrrolidin-1-yl]-1-[3-(trifluoromethoxy)phenyl]ethyl}cyclohexanol dihydrochloride] |  |
| 88 | 200 | NC1CCN(CC(c2cccc(Br)c2)C2(O)CCCCC2)CC1 (centres unmarked) [Example 18, 1-[2-(4-aminopiperidin-1-yl)-1-(3-bromophenyl)ethyl]cyclohexanol dihydrochloride] |  |
| 81.8 |  | NC1CCN(CC(c2cccc(Cl)c2)C2CCCCC2O)CC1 (centres unmarked) [Example 239, 2-[2-(4-aminopiperidin-1-yl)-1-(3-chlorophenyl)ethyl]cyclohexanol dihydrochloride] |  |
| 98.5 |  | CN[C@H]1CCN(CC(c2ccc(OCc3ccccc3)c(Cl)c2)C2(O)CCCCC2)C1 (stereo partly drawn) [Example 209, 1-{1-[4-(benzyloxy)-3-chlorophenyl]-2-[(3S)-3-(methylamino)pyrrolidin-1-yl]ethyl}cyclohexanol dihydrochloride] |  |
| 96 | 70 | OC1(C(CN2CCC(N3CCCC3)CC2)c2cccc(Br)c2)CCCCC1 (centres unmarked) [Example 7, 1-[1-(3-bromophenyl)-2-(4-pyrrolidin-1-ylpiperidin-1-yl)ethyl]cyclohexanol dihydrochloride] |  |
| 85 | 160 | OC1(C(CN2CCC(N3CCCCC3)CC2)c2ccc3ccccc3c2)CCCCC1 (centres unmarked) [Example 22, 1-[2-(1,4′-bipiperidin-1′-yl)-1-(2-naphthyl)ethyl]cyclohexanol dihydrochloride] |  |
| 95 | 140 | COc1ccc(C(CN2CCC(N3CCCCC3)CC2)C2(O)CCCCC2)cc1Br (centres unmarked) [Example 8, 1-[2-(1,4′-bipiperidin-1′-yl)-1-(3-bromo-4-methoxyphenyl)ethyl]cyclohexanol dihydrochloride] |  |
| 84.2 |  | CNC1CCN(CC(c2cccc(Cl)c2)C2CCCC2)CC1 (centres unmarked) [Example 228, 1-[2-(3-chlorophenyl)-2-cyclopentylethyl]-N-methylpiperidin-4-amine dihydrochloride] |  |
| 79.1 |  | CNC1CCN(CC(c2cccc(Cl)c2)C2CCCCC2)CC1 (centres unmarked) [Example 232, 1-[2-(3-chlorophenyl)-2-cyclohexylethyl]-N-methylpiperidin-4-amine dihydrochloride] |  |
| 67.9 |  | CN[C@H]1CCCN(CC(c2cccc(OC(F)(F)F)c2)C2(O)CCCCC2)C1 (stereo partly drawn) [Example 189, 1-{2-[(3S)-3-(methylamino)piperidin-1-yl]-1-[3-(trifluoromethoxy)phenyl]ethyl}cyclohexanol dihydrochloride] |  |
| 79 | 150 | CNC1CCN(CC(c2ccc(OC)c(Br)c2)C2(O)CCCCC2)CC1 (centres unmarked) [Example 29, 1-{1-(3-bromo-4-methoxyphenyl)-2-[4-(methylamino)piperidin-1-yl]ethyl}cyclohexanol dihydrochloride] |  |
| 86 | 290 | CNC1CCN(C[C@H](c2cccc(OC(F)(F)F)c2)C2(O)CCCCC2)CC1 [Example 359, 1-{(1S)-2-[4-(methylamino)piperidin-1-yl]-1-[3-(trifluoromethoxy)phenyl]ethyl}cyclohexanol dihydrochloride] |  |
